The test system of this assay is BDF1 mice, Adenocarcinoma 755 s.c., tumor weight T/C. Kind of assay: NCI In Vivo Anticancer Drug Screen. Data for tumor model Adenocarcinoma 755 (subcutaneous) in B6D2F1 (BDF1) mice. The note with it: endpoint: mean tumor weight, higher = larger tumour. In a few lines:
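Readout: T/C, i.e. treated-group measurement over vehicle-control measurement. Endpoint is survival or tumor size in tumor-bearing mice given compound.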

The mark [1] stands for this setting: dose: 15.0 mg/kg/injection, schedule: Q01DX011 (ip), vehicle: methylcellulose (MC).
[2] abbreviates: dose: 62.0 mg/kg/injection, schedule: Q01DX011 (ip), vehicle: methylcellulose (MC).
[3] abbreviates: dose: 25.0 mg/kg/injection, schedule: Q01DX011 (ip), vehicle: methylcellulose (MC).
[4] abbreviates: dose: 25.0 mg/kg/injection, schedule: Q01DX011 (sc), vehicle: steriod suspending solution.
[5] abbreviates: dose: 30.0 mg/kg/injection, schedule: Q01DX011 (ip), vehicle: carboxymethylcellulose (CMC).
The mark [6] stands for this setting: dose: 50.0 mg/kg/injection, schedule: Q01DX011 (ip), vehicle: methylcellulose (MC).
Setting [7] is: dose: 100.0 mg/kg/injection, schedule: Q01DX011 (ip), vehicle: methylcellulose (MC).

Structures are written as SMILES. Where “and” joins values, the source holds several entries; their conditions need not be identical. Equal values may be shown once.

Take `CC(C)CN1CC(C)C(=O)N(c2ccccc2)C1=S` (stereo unspecified): the T/C was 51 % of control under setting [1]; 89 % of control (dose: 31.0 mg/kg/injection, schedule: Q01DX011 (ip), vehicle: methylcellulose (MC)); 79 % of control under setting [2]; 57 % of control (dose: 125.0 mg/kg/injection, schedule: Q01DX011 (ip), vehicle: methylcellulose (MC)).

`CS(=O)(=O)OCCC(=O)N1CCC(CCC2CCN(C(=O)CCOS(C)(=O)=O)CC2)CC1`: the T/C reads like this: under setting [3], 79 % of control; (dose: 75.0 mg/kg/injection, schedule: Q01DX011 (ip), vehicle: methylcellulose (MC)) 63 % of control; (dose: 225.0 mg/kg/injection, schedule: Q01DX011 (ip), vehicle: methylcellulose (MC)) 81 % of control.

For `O=C1NC(=O)C(c2ccc(Cl)cc2)(c2ccccc2Cl)N1` (stereo unspecified), the T/C by setting is: (dose: 50.0 mg/kg/injection, schedule: Q01DX011 (ip), vehicle: saline) 91 % of control; (dose: 100.0 mg/kg/injection, schedule: Q01DX011 (ip), vehicle: saline) 82 % of control; (dose: 125.0 mg/kg/injection, schedule: Q01DX011 (ip), vehicle: carboxymethylcellulose (CMC)) 81 % of control; (dose: 200.0 mg/kg/injection, schedule: Q01DX011 (ip), vehicle: saline) 58 % of control and 77 % of control; (dose: 250.0 mg/kg/injection, schedule: Q01DX011 (ip), vehicle: carboxymethylcellulose (CMC)) 28 % of control; (dose: 400.0 mg/kg/injection, schedule: Q01DX011 (ip), vehicle: other) 71 % of control. Further, the T/C runs as follows: (dose: 500.0 mg/kg/injection, schedule: Q01DX011 (ip), vehicle: carboxymethylcellulose (CMC)) 81 % of control; (dose: 800.0 mg/kg/injection, schedule: Q01DX011 (ip), vehicle: other) 30 % of control; (dose: 800.0 mg/kg/injection, schedule: Q01DX011 (ip), vehicle: saline) 76 % of control; (dose: 1600.0 mg/kg/injection, schedule: Q01DX011 (ip), vehicle: saline) 107 % of control.

With `Nc1n[se]nc1C(=O)O`, the T/C (dose: 0.75 mg/kg/injection, schedule: Q01DX011 (ip), vehicle: carboxymethylcellulose (CMC)) was 82 % of control.

With `CC(=O)OCC(=O)[C@@]1(O)CC[C@H]2[C@@H]3CCC4=CC(=O)[C@H](C)C[C@]4(C)[C@H]3[C@@H](O)C[C@@]21C`, the T/C is 52 % of control (dose: 6.2 mg/kg/injection, schedule: Q01DX011 (sc), vehicle: steriod suspending solution); 43 % of control (dose: 12.5 mg/kg/injection, schedule: Q01DX011 (sc), vehicle: steriod suspending solution); 13 % of control and 38 % of control under setting [4]; 32 % of control (dose: 50.0 mg/kg/injection, schedule: Q01DX011 (sc), vehicle: steriod suspending solution); 15 % of control (dose: 100.0 mg/kg/injection, schedule: Q01DX011 (sc), vehicle: steriod suspending solution); 4 % of control (dose: 400.0 mg/kg/injection, schedule: Q01DX011 (sc), vehicle: steriod suspending solution).

For `CC(C)Cn1cnc2c(=S)nc(N)[nH]c21`, the T/C (dose: 3.9 mg/kg/injection, schedule: Q01DX011 (ip), vehicle: methylcellulose (MC)) was 5 % of control.

For `NNC(=O)NC(=O)NN`, the T/C is 117 % of control (dose: 13.06 mg/kg/injection, schedule: Q01DX011 (ip), vehicle: carboxymethylcellulose (CMC)); 187 % of control (dose: 26.13 mg/kg/injection, schedule: Q01DX011 (ip), vehicle: carboxymethylcellulose (CMC)); 74 % of control (dose: 52.25 mg/kg/injection, schedule: Q01DX011 (ip), vehicle: carboxymethylcellulose (CMC)); 79 % of control (dose: 104.5 mg/kg/injection, schedule: Q01DX011 (ip), vehicle: carboxymethylcellulose (CMC)); 207 % of control (dose: 3845.0 micrograms/kg/injection, schedule: Q01DX011 (ip), vehicle: carboxymethylcellulose (CMC)); 46 % of control (dose: 7690.0 micrograms/kg/injection, schedule: Q01DX011 (ip), vehicle: carboxymethylcellulose (CMC)).

Regarding `COc1cc(/C=N/Nc2nc3c([nH]2)c(=O)n(C)c(=O)n3C)ccc1O`, the T/C runs as follows: under setting [5], 91 % of control; (dose: 120.0 mg/kg/injection, schedule: Q01DX011 (ip), vehicle: carboxymethylcellulose (CMC)) 119 % of control.

Take `CN(C)c1ccc(Nc2c3ccccc3nc3ccccc23)cc1`: the T/C was 70 % of control (dose: 9.0 mg/kg/injection, schedule: Q01DX011 (ip), vehicle: saline); 91 % of control (dose: 18.0 mg/kg/injection, schedule: Q01DX011 (ip), vehicle: saline); 75 % of control (dose: 35.0 mg/kg/injection, schedule: Q01DX011 (ip), vehicle: saline); 39 % of control (dose: 70.0 mg/kg/injection, schedule: Q01DX011 (ip), vehicle: saline).

For the compound `COc1ccc2c(c1)CCC(c1ccccc1)=C2c1ccc(OCCN2CCCC2)cc1`, the T/C by setting is: (dose: 3.0 mg/kg/injection, schedule: Q01DX011 (sc), vehicle: steriod suspending solution) 86 % of control; (dose: 6.0 mg/kg/injection, schedule: Q01DX011 (sc), vehicle: steriod suspending solution) 82 % of control; (dose: 12.0 mg/kg/injection, schedule: Q01DX011 (sc), vehicle: steriod suspending solution) 34 % of control; under setting [4], 26 % of control.

With `Cc1cnc(SCc2ccc(Cl)cc2Cl)nc1N(C)C`, the T/C under setting [2] is 55 % of control.

Regarding `Nc1nc(=S)c2ncn(C3OC(COC(=O)c4ccccc4)C(OC(=O)c4ccccc4)C3OC(=O)c3ccccc3)c2[nH]1` (stereo unspecified), the T/C was 52 % of control (dose: 12.5 mg/kg/injection, schedule: Q01DX011 (ip), vehicle: methylcellulose (MC)); 49 % of control under setting [3]; 7 % of control under setting [6]; 3 % of control under setting [7].

Take `Nc1nc2c(nnn2C2OC(CO)C(O)C2O)c(=O)[nH]1` (stereo unspecified): the T/C (dose: 12.0 mg/kg/injection, schedule: Q01DX011 (ip), vehicle: methylcellulose (MC)) is 38 % of control.

`COc1ccc2c(c1)/C(=C/CCN(C)C)c1ccccc1S2`: the T/C (dose: 1.0 mg/kg/injection, schedule: Q01DX011 (ip), vehicle: methylcellulose (MC)) is 87 % of control; the T/C (dose: 2.0 mg/kg/injection, schedule: Q01DX011 (ip), vehicle: methylcellulose (MC)) was 87 % of control; the T/C (dose: 3.0 mg/kg/injection, schedule: Q01DX011 (ip), vehicle: methylcellulose (MC)) is 27 % of control; the T/C (dose: 4.0 mg/kg/injection, schedule: Q01DX011 (ip), vehicle: carboxymethylcellulose (CMC)) was 93 % of control; the T/C (dose: 7.0 mg/kg/injection, schedule: Q01DX011 (ip), vehicle: carboxymethylcellulose (CMC)) was 29 % of control; the T/C (dose: 7.0 mg/kg/injection, schedule: Q01DX011 (ip), vehicle: methylcellulose (MC)) was 42 % of control. For the same compound, the T/C is, setting by setting: (dose: 15.0 mg/kg/injection, schedule: Q01DX011 (ip), vehicle: carboxymethylcellulose (CMC)) 67 % of control; under setting [1], 39 % of control; under setting [5], 47 % of control.

`CCOc1ccc2nc(S(N)(=O)=O)sc2c1`: the T/C is, setting by setting: under setting [6], 60 % of control; (dose: 100.0 mg/kg/injection, schedule: Q01DX011 (ip), vehicle: carboxymethylcellulose (CMC)) 23 % of control and 30 % of control; under setting [7], 89 % of control; (dose: 200.0 mg/kg/injection, schedule: Q01DX011 (ip), vehicle: carboxymethylcellulose (CMC)) 13 % of control; (dose: 400.0 mg/kg/injection, schedule: Q01DX011 (ip), vehicle: methylcellulose (MC)) 19 % of control.

A word on the T/C: it is the result in the treated group divided by that in the control group, in per cent.

These data come from PubChem BioAssay AID180 (DTP/NCI, 2004).
